Assay results reported in EP2343287A1, “New 2-aminothiadiazole derivatives” (Almirall, S.A., priority 2009, dated 2011).

Biological target: S1P1 (Homo sapiens, UniProt P21453)
Assay: 35S-GTPyS binding assay
Format: biochemical
Conditions: membranes; compounds at 0.1nM-10µM; 0.1nM 35S-GTPyS; 10µM S1P used as 100% maximum efficacy; 90 min at room temperature
Description: The effect of the compounds was measured using a 35S-GTPyS binding assay. Briefly, membranes were incubated in a buffer containing 20 mM HEPES pH 7.4, 100 mM NaCl, 10 mM MgCl2, 10µM GDP, 50µg/ml saponin and 0.2% fatty acid-free BSA at various concentrations (0.1nM-10µM) and 0.1nM 35S-GTPyS. 10µM S1P was used as 100% maximum efficacy. The assay was incubated for 90 min at room temperature with gentle mixing, and terminated by filtrating the reaction mixture through GF/C filter plates using the Manifold Filtration System. The filters were immediately washed with sodium phosphate pH 7.4 buffers. After drying the filter plate's scintillant liquid were added to each well and 35S-GTPyS binding was measured on a Trilux Scintillation Counter.

Chain of S1P1 (P21453 whole entry, species assumed): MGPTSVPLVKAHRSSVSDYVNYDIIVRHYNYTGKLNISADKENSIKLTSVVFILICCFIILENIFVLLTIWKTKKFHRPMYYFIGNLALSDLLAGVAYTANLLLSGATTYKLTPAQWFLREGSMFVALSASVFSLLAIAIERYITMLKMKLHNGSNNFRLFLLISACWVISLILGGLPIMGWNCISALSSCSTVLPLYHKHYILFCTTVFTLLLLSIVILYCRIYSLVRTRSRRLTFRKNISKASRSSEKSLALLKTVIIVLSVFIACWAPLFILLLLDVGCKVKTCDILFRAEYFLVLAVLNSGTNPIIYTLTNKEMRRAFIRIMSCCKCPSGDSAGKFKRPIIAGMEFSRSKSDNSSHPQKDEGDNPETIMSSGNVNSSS

EC50 | Compound
39 nM | CCCCN(Cc1ccccc1Cl)c1nnc(-c2cc(C)c(OC)c(C)c2)s1 [Example 1, N-Butyl-N-(2-chlorobenzyl)-5-(4-methoxy-3,5-dimethylphenyl)-1,3,4-thiadiazol-2-amine]
18 nM | CCCCN(Cc1c(Cl)cccc1Cl)c1nnc(-c2ccnc(C)c2)s1 [Example 16, N-Butyl-N-(2,6-dichlorobenzyl)-5-(2-methylpyridin-4-yl)-1,3,4-thiadiazol-2-amine]
33 nM | CCCCN(Cc1ccccc1F)c1nnc(-c2cc(C)c(OCCN3CC(C(=O)O)C3)c(C)c2)s1 [Example 35, 1-[2-(4-{5-[Butyl(2-fluorobenzyl)amino]-1,3,4-thiadiazol-2-yl}-2,6-dimethyl-phenoxy)ethyl]azetidine-3-carboxylic acid]
123 nM | CCCCN(c1nnc(-c2ccc(CN3CC(C(=O)O)C3)cc2)s1)S(=O)(=O)Cc1ccccc1 [Example 43, 1-(4-{5-[(Benzylsulfonyl)(butyl)amino]-1,3,4-thiadiazol-2-yl}benzyl)azetidine-3-carboxylic acid]
5 nM | CCCCN(Cc1ccccc1F)c1nnc(-c2cc(C)c(OCCNCCC(=O)O)c(C)c2)s1 [Example 36, N-[2-(4-{5-[Butyl(2-fluorobenzyl)amino]-1,3,4-thiadiazol-2-yl}-2,6-dimethyl-phenoxy)ethyl]-beta-alanine]
15 nM | CCCCN(Cc1ccccc1Cl)c1nnc(-c2cc(C)c(OC[C@H](O)CO)c(C)c2)s1 [Example 29, (2R)-3-(4-{5-[Butyl(2-chlorobenzyl)amino]-1,3,4-thiadiazol-2-yl}-2,6-dimethyl-phenoxy)propane-1,2-diol]
32 nM | CCCCN(Cc1ccccc1Cl)c1nnc(-c2cc(C)c(OCC(O)CN)c(C)c2)s1 (stereo not shown) [Example 34, 1-Amino-3-(4-{5-[butyl(2-chlorobenzyl)amino]-1,3,4-thiadiazol-2-yl}-2,6-dimethyl-phenoxy)propan-2-ol]
